Reference: patent US12509460B2 (Skyhawk Therapeutics, Inc., priority 2019, dated 2025)
Where two headings read alike, the source gives them in different places.

Assays:
[1] = test system: mHTT protein in GM04724 (CAG 70/20) Huntington's disease patient lymphoblast cells; assay: mHTT protein assay, 2B7-MW1 assay via Mesoscale Discovery (MSD); format: cell-based, human
Protocol: Example A10: mHTT Protein Assay
Compounds are tested on GM04724 (CAG 70/20) Huntington's disease patient lymphoblast cells at doses ranging from 10 μM to 0.6 nM. 4,500 cells/well are seeded in 384 well plates. One plate replica is carried out for parallel viability testing by CellTiter Glo (CTG). Compounds are incubated for 48 hours. mHTT protein levels are assessed by the 2B7-MW1 assay via Mesoscale Discovery (MSD) as previously reported (Macdonald et al., 2014). The antibody pair is comprised of previously characterized monoclonals (2B7 and MW1) interrogating two regions for HTT conformation and biological properties: the N, 17 domain and the polyQ domain (Baldo et al., 2012; Ko et., 2001). 2B7-MW1 is […] specific levels of HTT at the time of treatment. 2B7-MW1 is dependent on polyQ expansion (e.g., the higher the expansion the higher the signal) and on mHTT size (e.g., a similar polyQ will give higher signal with smaller HTT size). The viability readout is carried out by CTG according to the manufacturer's instructions.

[2] = test system: SMN FL and SMN Δ7 in spinal muscular atrophy (SMA) patient fibroblasts (GM03813, Coriell); assay: Quantitative splicing assay (SMN), qPCR; format: cell-based, human; conditions: read-out: SMN2 Splicing FL EC50
Protocol: Spinal muscular atrophy (SMA) patient fibroblasts (GM03813, Coriell) are plated in 96-well plates at 50,000 cells/well. […] Treated cells are lysed and cDNA synthesized using the Fast Advanced Cells-to-Ct kit (Thermofisher A35378) according to the manufacturer's instructions. 2 μL of each cDNA are used in qPCR reactions. […] Reactions are run in a Quant Studio 6 qPCR instrument with default settings.

[3] = test system: SMN protein in spinal muscular atrophy (SMA) patient fibroblasts (GM03813, Coriell); assay: SMN protein assay, Mesoscale Discovery (MSD); format: cell-based, human; conditions: read-out: SMN2 protein EC50
Protocol: Example A12: SMN Protein Assay
Compounds are tested on spinal muscular atrophy (SMA) patient fibroblasts (GM03813, Coriell) at doses ranging from 2.5 μM to 0.6 nM. 7000 cells/well are seeded in 96-well plates. Compounds are incubated for 48 hours and the cells were lysed with 100 μL of lysis buffer. 20 μL of lysate is used for SMN protein measurement by Mesoscale Discovery (MSD) assay developed by PharmOptima (Michigan). A standard curve prepared with SMN protein ranging from 1 μg/ml to 19.5 pg/ml is used in each MSD plate to calculate the absolute SMN protein amount in each sample.

MDR1 (P-gp) = assay: Blood-brain-barrier (BBB) penetration potential via MDCK-MDR1 permeability assay; conditions: dog; for Papp A→B at 120 min, 5 μM: MDCK-MDR1, pH 7.4, MDCK-MDR1: Papp A-B; for Papp B→A at 120 min, 5 μM: MDCK-MDR1, pH 7.4, MDCK-MDR1: Papp B-A; for efflux ratio at 120 min, 5 μM: MDCK-MDR1, pH 7.4, MDCK-MDR1: Efflux
[4] = test system: MDR1-MDCK cell monolayers; assay: as above
MDR1 = assay: as above; conditions: dog, MDCK-MDR1, pH 7.4, MDCK-MDR1: Efflux, efflux ratio
[5] = GM04724 Huntington's disease patient lymphoblasts
[6] = Homo sapiens, Fibroblast, 24 h, SMA patient fibroblasts GM03813, 24 h, qPCR
[7] = SMA patient fibroblasts GM03813, 48 hours, MSD

| Compound | EC50 [1, 5] [nM] | EC50 [2, 6] [nM] | EC50 [3, 7] [nM] | Papp A→B at 120 min, 5 μM (MDR1 (P-gp); A-B direction) [×10⁻⁶ cm/s] | Papp B→A at 120 min, 5 μM (MDR1 (P-gp); B-A direction) [×10⁻⁶ cm/s] | MDCK-MDR1: % Recov A-B ([4]; A-B direction) [%] | MDCK-MDR1: % Recov B-A ([4]; B-A direction) [%] | efflux ratio at 120 min, 5 μM (MDR1) | EC50 ([2]; SMA patient fibroblasts GM03813, 24 h, qPCR) [nM] | EC50 ([1]; GM04724 (CAG 70/20) Huntington's disease patient lymphoblasts) [nM] | EC50 ([2]; Homo sapiens, Fibroblast, 24 h, SMA patient fibroblasts (GM03813), 24 h) [nM] | EC50 ([3]; SMA patient fibroblasts (GM03813), 48 hours) [nM] | efflux ratio at 120 min, 5 μM (MDR1 (P-gp)) | Papp A→B at 120 min, 5 μM (MDR1 (P-gp); A-B) [×10⁻⁶ cm/s] | Papp B→A at 120 min, 5 μM (MDR1 (P-gp); B-A) [×10⁻⁶ cm/s] | MDCK-MDR1: % Recov A-B ([4]; A-B) [%] | MDCK-MDR1: % Recov B-A ([4]; B-A) [%] | efflux ratio at 120 min, 5 μM (MDR1 (P-gp); efflux ratio) |
| --- | --- | --- | --- | --- | --- | --- | --- | --- | --- | --- | --- | --- | --- | --- | --- | --- | --- | --- |
| CN(C)C(=O)c1cc2cc(O)c(-c3ccc(N(C)[C@@H]4C[C@H]5CC[C@H](N5)[C@@H]4F)nn3)cc2o1 [Compound 9A, 6-(6-(((1S,2S,3R,5R)-2-fluoro-8-azabicyclo[3.2.1]octan-3-yl)(methyl)amino)pyridazin-3-yl)-5-hydroxy-N,N-dimethylbenzofuran-2-carboxamide] | 51 to 100 | 16 to 50 | 0.01 to 15 | 0.76 | 61.1 | 108 | 111 | 80 |  |  |  |  |  |  |  |  |  |  |
| COc1cc(-c2ccc(-c3ccc(N(C)[C@H]4CC5N[C@@H](C4)CC5(F)F)nn3)c(O)c2)cnn1 (single isomer, unassigned) [Compound 2A] | 16 to 50 |  | 16 to 50 | 11.3 | 39 | 54 | 81 | 3 | 16 to 50 |  |  |  |  |  |  |  |  |  |
| CN(c1ccc(-c2cc(F)c(-c3ccn(C)c(=O)c3)cc2O)nn1)[C@@H]1C[C@H]2CC(F)(F)[C@@H](C1)N2 [Compound 22A, 4-(4-(6-(((1S,3R,5R)-6,6-difluoro-8-azabicyclo[3.2.1]octan-3-yl)(methyl)amino)pyridazin-3-yl)-2-fluoro-5-hydroxyphenyl)-1-methylpyridin-2(1H)-one] |  | 0.01 to 15 | 0.01 to 15 | 1.82 | 80.9 | 86 | 94 | 45 |  |  |  |  |  |  |  |  |  |  |
| Cc1ccc(-c2ccc(-c3ccc(N(C)[C@@H]4C[C@H]5CC[C@H](N5)[C@@H]4F)nn3)c(O)c2)nn1 (single isomer, unassigned) [Compound 25A] | 101 to 500 | 101 to 500 | 0.01 to 15 | 1.79 | 55 | 99 | 99 | 31 |  |  |  |  |  |  |  |  |  |  |
| CN(c1ccc(-c2ccc(-c3cnn(C)c3)cc2O)nn1)[C@H]1C[C@@H]2CCC[C@@H](N2)[C@H]1F [Compound 15B, 2-(6-(((1R,2R,3S,5S)-2-fluoro-9-azabicyclo[3.3.1]nonan-3-yl)(methyl)amino)pyridazin-3-yl)-5-(1-methyl-1H-pyrazol-4-yl)phenol] | 0.01 to 15 | 0.01 to 15 | 0.01 to 15 | 3.21 | 39.3 | 62 | 84 | 12 |  |  |  |  |  |  |  |  |  |  |
| CN(c1ccc(-c2cc3oc(=O)n(C)c3cc2O)nn1)[C@H]1C[C@@H]2CC[C@@H](N2)[C@H]1F (single isomer, unassigned) [Compound 79B] | 51 to 100 | 101 to 500 | 16 to 50 | 2.69 | 42.9 | 90 | 99 | 16 |  |  |  |  |  |  |  |  |  |  |
| CN(c1ccc(-c2cc3ccncc3cc2O)nn1)[C@H]1C[C@@H]2CC(F)(F)[C@H](C1)N2 [Compound 125B, 6-(6-(((1R,3S,5S)-6,6-difluoro-8-azabicyclo[3.2.1]octan-3-yl)(methyl)amino)pyridazin-3-yl)isoquinolin-7-ol] |  |  |  |  |  |  |  |  |  | 51 to 100 | 16 to 50 | 16 to 50 | 3 | 15.6 | 53.2 | 67 | 81 |  |
| CN(c1ccc(-c2cc3c(F)cn(C)c(=O)c3cc2O)nn1)[C@@H]1C[C@H]2CC[C@H](N2)[C@@H]1F [Compound 54A, 4-fluoro-6-(6-(((1S,2S,3R,5R)-2-fluoro-8-azabicyclo[3.2.1]octan-3-yl)(methyl)amino)pyridazin-3-yl)-7-hydroxy-2-methylisoquinolin-1(2H)-one] |  | 16 to 50 | 0.01 to 15 | 3.54 | 82.6 | 108 | 115 | 23 |  |  |  |  |  |  |  |  |  |  |
| CN(c1ccc(-c2cc3ncccc3cc2O)nn1)[C@H]1C[C@@H]2CC(F)(F)[C@H](C1)N2 [Compound 46B, 7-(6-(((1R,3S,5S)-6,6-difluoro-8-azabicyclo[3.2.1]octan-3-yl)(methyl)amino)pyridazin-3-yl)quinolin-6-ol] | 101 to 500 | 101 to 500 | 16 to 50 | 32 | 31.6 | 68 | 86 |  |  |  |  |  |  |  |  |  |  | 1 |
| CN(c1ccc(-c2cc3ncccc3cc2O)nn1)[C@@H]1C[C@H]2CC(F)(F)[C@@H](C1)N2 [Compound 46A, 7-(6-(((1S,3R,5R)-6,6-difluoro-8-azabicyclo[3.2.1]octan-3-yl)(methyl)amino)pyridazin-3-yl)quinolin-6-ol] | 16 to 50 | 501 to 10000 | 16 to 50 | 31.7 | 29.2 | 68 | 89 |  |  |  |  |  |  |  |  |  |  | 1 |
| CN(c1ccc(-c2cc3c(F)cn(C)c(=O)c3cc2O)nn1)[C@H]1C[C@@H]2CC[C@@H](N2)[C@H]1F [Compound 54B, 4-fluoro-6-(6-(((1R,2R,3S,5S)-2-fluoro-8-azabicyclo[3.2.1]octan-3-yl)(methyl)amino)pyridazin-3-yl)-7-hydroxy-2-methylisoquinolin-1(2H)-one] |  | 0.01 to 15 | 0.01 to 15 | 2.28 | 61.5 | 99 | 107 | 27 |  |  |  |  |  |  |  |  |  |  |
